Data set [1] relates to protein concentration in the aqueous humor. The data set can be described thus: Protein measurement in aqueous humor, rabbit paracentesis model. It counts as in vivo. The note with it: for Protein level in aqueous humor, Mean / Protein level in aqueous humor: second paracentesis; for Protein level in aqueous humor, Mean: group mean; for Protein level in aqueous humor: individual eye. The procedure: (§1) Each rabbit was placed in a restraint device and tagged with the alphanumeric code. The formulations were instilled (50 μl) into the conjunctival sac of both eyes 180, 120, 90 and 30 min before the first paracentesis; then 15, 30, 90 min after the first paracentesis. To perform the first paracentesis the animals were anaesthetized by intravenous injection of 5 mg/kg Zoletil® (Virbac; 2.5 mg/kg tiletamine HCl and 2.5 mg/kg zolazepam HCl) and one drop of local anesthetic (Novesina®, Novartis) was administered to the eye. Anterior chamber paracentesis was performed with a 26 G needle attached to a tuberculin syringe; the needle was introduced into the anterior chamber through the cornea, taking care not to damage the tissues. Two hours after the first paracentesis, the animals were sacrificed with 0.4 ml Tanax® (Intervet International B.V.) and the second paracentesis was performed. About 100 μl of aqueous humor were removed at the second paracentesis. Aqueous humor was immediately split in four aliquots and stored at −80° C. until analysis. Then both eyes were enucleated and the iris-ciliary body was carefully excised, placed in polypropylene tubes, and stored at −80° C. until analysis.
For protein concentration determination in the aqueous humor we used the Protein Quantification Kit (Fluka; Cat. No. 77371; Lot. No. 1303129). Five microliters of aqueous humor were diluted to 100 μl with water. Twenty microliters of samples and of standards were load into a 96-well plate and recorded in a plate layout. Samples were treated following the assay procedure described in the kit. A microplate reader (GDV, Italy; model DV 990 B/V6) set at 670 nm was used for making the calibration and analyzing the samples.

Data set [2] relates to leukocytes (PMN) in aqueous humor. The data set can be described thus: Leukocytes (PMN) measurement in aqueous humor, rabbit paracentesis model. It counts as in vivo. The note with it: second paracentesis; for PMN numbers in aqueous humor, Mean: group mean; for PMN numbers in aqueous humor: individual eye. The procedure: as §1
For the determination of the number of leukocytes we used a haemocytometer (Improved Neubauer Chamber; Bright-line, Hausser Scientific) and a Polyvar 2 microscope (Reichert-Jung).

The subject of data set [3] is MPO activity in iris-ciliary body. The data set can be described thus: Myeloperoxidase (MPO) activity in iris-ciliary body, rabbit paracentesis model. In kind it is in vivo. The note with it: for MPO Unit/g: iris-ciliary body samples collected after the second paracentesis, individual eye samples; for MPO activity in iris-ciliary body, Mean: after second paracentesis, group mean. The procedure:
as §1
The activity of MPO was measured as previously described by Williams et al.[5] The iris-ciliary bodies were carefully dried, weighed and immersed in 1 ml of hexa-decyl-trimethyl-ammonium bromide solution. Then, the samples were sonicated for 10 sec on ice by a ultrasound homogenizer (HD 2070, Bandelin electronic), freeze-thawed three times, sonicated for 10 sec and centrifuged at 14,000 g for 10 min to remove cellular debris. An aliquot of the supernatant ([…] was diluted to 3 ml with the o-dianisidine 2HCl/H2O2 solution. The change in absorbance at 460 nm was continuously monitored for 5 min by a spectrophotometer (UV/Vis Spectrometer Lambda EZ 201; Perkin Elmer). The slope of the line (Δ/min) was determined for each sample and used to calculate the number of units of MPO in the tissue as follows:
were ε=11.3 mM^−1. Values were expressed as units of MPO/g of tissue.

Another data set relates to monkey TM cells. Nature of the data set: Cell metabolic activity (resazurin reduction) assay in monkey TM cells. It counts as cell-based, rhesus monkeys (Macaca mulatta). The note with it: 3 to 300 nM, end of treatment period; results not shown. On the procedure:
A modification of previously described methods^40 was employed to evaluate cell metabolic activity, an index of cell viability. After collection of CM samples, cells were briefly rinsed in modified Hanks balanced salt solution containing Ca^++ and Mg^++ (“MHBSS”), and then 0.0025% (w/v) resazurin (Sigma) in MHBSS was added to sample wells. Plates were incubated (37° C., 5% CO2, 95% humidity) for 90 minutes, after which fluorescence (Excitation 560 nm, Emission 590 nm) was read (Victor 3V Multilabel Counter, Wallac, Turku, Finland). As a positive control for decreased cellular metabolic reduction of resazurin, in each plate an additional well of vehicle control-treated cells was preincubated with 0.06% hydrogen peroxide (Fisher, Atlanta, Ga.) in MHBSS.

The mark [4] stands for this setting: 0.1% topical formulation, listed as BOL.
Where [5] appears, read: 0.5% topical formulation, listed as BOL.
The mark [6] stands for this setting: 1% topical formulation, listed as BOL.

“And” between values parts separate entries of the source, which are not always exact repeats. Equal entries are not always repeated.

For the compound `Cc1ccc2c(NCC(O)(CC(C)(C)c3cc(F)cc4c3OCC4)C(F)(F)F)cccc2n1` (stereo not drawn) [BOL-303242-X], the “Protein level in aqueous humor, Mean” value in data set [1] (0.1% topical formulation) amounted to 33.667 mg/mL; in data set [1] (0.5% topical formulation), 28.844 mg/mL; in data set [1] (1% topical formulation), 21.435 mg/mL. The “Protein level in aqueous humor” value in data set [1] (setting [4]) is 34.87 mg/mL and 34.41 mg/mL and 31.14 mg/mL and 22.82 mg/mL and 29.46 mg/mL and 31.69 mg/mL and 35.70 mg/mL and 49.25 mg/mL; in data set [1] (setting [5]), 33.98 mg/mL and 33.65 mg/mL and 19.99 mg/mL and 27.11 mg/mL and 19.72 mg/mL and 36.35 mg/mL and 27.71 mg/mL and 32.24 mg/mL; in data set [1] (setting [6]), 20.99 mg/mL and 21.48 mg/mL and 15.11 mg/mL and 20.28 mg/mL and 20.94 mg/mL and 21.89 mg/mL and 20.03 mg/mL and 30.76 mg/mL. Besides, the “Protein, p vs CTR” value in data set [1] (0.5% topical formulation) was less than 0.05. For the same compound, the “PMN numbers in aqueous humor, Mean” value was 28.333 number/μl in data set [2] (0.1% topical formulation), 21.250 number/μl in data set [2] (0.5% topical formulation) and 28.750 number/μl in data set [2] (1% topical formulation). Besides, the “PMN numbers in aqueous humor” value in data set [2] (setting [4]) is 20 number/μl (4×) and 40 number/μl and 50 number/μl; in data set [2] (setting [5]), 40 number/μl (2×) and 20 number/μl (3×) and 10 number/μl (3×); in data set [2] (setting [6]), 30 number/μl (3×) and 20 number/μl (3×) and 40 number/μl (2×). The “MPO Unit/g” value in data set [3] (0.1% BOL, listed as BOL) is 1.04 Unit/g and 1.00 Unit/g and 1.14 Unit/g and 1.06 Unit/g and 1.22 Unit/g and 0.61 Unit/g and 1.05 Unit/g and 0.65 Unit/g; in data set [3] (0.5% BOL, listed as BOL), 0.85 Unit/g and 0.93 Unit/g and 0.79 Unit/g and 1.03 Unit/g and 0.75 Unit/g and 0.74 Unit/g and 0.54 Unit/g and 0.58 Unit/g; in data set [3] (1% BOL, listed as BOL), 0.66 Unit/g and 0.68 Unit/g and 0.49 Unit/g and 0.40 Unit/g and 0.34 Unit/g and 1.02 Unit/g and 0.31 Unit/g and 0.43 Unit/g. The “MPO activity in iris-ciliary body, Mean” value in data set [3] (0.1% topical formulation) is recorded as 0.971 MPO Unit/g; in data set [3] (0.5% topical formulation), 0.775 MPO Unit/g; in data set [3] (1% topical formulation), 0.542 MPO Unit/g. The “Activity in rabbit paracentesis model (preliminary conclusion)” value in data set [3] (0.1%, 0.5%, 1% topical formulations, overall conclusion across biomarkers) is recorded as “active in this model”. Also, the “Cell viability compared to vehicle controls (resazurin reduction)” value in the data set on monkey TM cells was “nor did any drug treatments result in a loss of cell viability”.
Regarding `C[C@@H]1C[C@H]2[C@@H]3CCC4=CC(=O)C=C[C@]4(C)[C@@]3(F)[C@@H](O)C[C@]2(C)[C@@]1(O)C(=O)CO` [Dex, dexamethasone, reference compound], in data set [1] (0.1% topical formulation), the “Protein level in aqueous humor, Mean” value was determined as 33.457 mg/mL; the “Protein level in aqueous humor” value is 31.31 mg/mL and 31.81 mg/mL and 35.95 mg/mL and 37.15 mg/mL and 32.12 mg/mL and 32.40 mg/mL. For the same compound, the “PMN numbers in aqueous humor” value in data set [2] (0.1% topical formulation) was 20 number/μl (3×) and 50 number/μl and 40 number/μl and 30 number/μl. Also, the “MPO Unit/g” value in data set [3] (0.1% Dex) was 0.71 Unit/g and 0.60 Unit/g and 1.32 Unit/g and 0.48 Unit/g (2×) and 0.39 Unit/g and 0.45 Unit/g and 0.51 Unit/g. The “MPO activity in iris-ciliary body, Mean” value in data set [3] (0.1% topical formulation) was 0.618 MPO Unit/g. The “Cell viability compared to vehicle controls (resazurin reduction)” value with monkey TM cells is given as “nor did any drug treatments result in a loss of cell viability”.

(Values after patent US20110077270A1, “Compositions and Methods for Treating Ocular Inflammation with Lower Risk of Increased Intraocular Pressure” (priority 2009, published 2011).)
